Activity calls are given as the source filed them. Rule as the data show it: actives have a measured IC50 and inactives only a lower limit.
target: Envelope glycoprotein gp160 (Human immunodeficiency virus 1, UniProt Q6QLK5); assay: inhibitors of HIV fusion peptide binding, primary screen, biochemical, uHTS, fluorescence dequenching (AID 1986)
Sequence (Q6QLK5 whole entry, the tested form may be a part): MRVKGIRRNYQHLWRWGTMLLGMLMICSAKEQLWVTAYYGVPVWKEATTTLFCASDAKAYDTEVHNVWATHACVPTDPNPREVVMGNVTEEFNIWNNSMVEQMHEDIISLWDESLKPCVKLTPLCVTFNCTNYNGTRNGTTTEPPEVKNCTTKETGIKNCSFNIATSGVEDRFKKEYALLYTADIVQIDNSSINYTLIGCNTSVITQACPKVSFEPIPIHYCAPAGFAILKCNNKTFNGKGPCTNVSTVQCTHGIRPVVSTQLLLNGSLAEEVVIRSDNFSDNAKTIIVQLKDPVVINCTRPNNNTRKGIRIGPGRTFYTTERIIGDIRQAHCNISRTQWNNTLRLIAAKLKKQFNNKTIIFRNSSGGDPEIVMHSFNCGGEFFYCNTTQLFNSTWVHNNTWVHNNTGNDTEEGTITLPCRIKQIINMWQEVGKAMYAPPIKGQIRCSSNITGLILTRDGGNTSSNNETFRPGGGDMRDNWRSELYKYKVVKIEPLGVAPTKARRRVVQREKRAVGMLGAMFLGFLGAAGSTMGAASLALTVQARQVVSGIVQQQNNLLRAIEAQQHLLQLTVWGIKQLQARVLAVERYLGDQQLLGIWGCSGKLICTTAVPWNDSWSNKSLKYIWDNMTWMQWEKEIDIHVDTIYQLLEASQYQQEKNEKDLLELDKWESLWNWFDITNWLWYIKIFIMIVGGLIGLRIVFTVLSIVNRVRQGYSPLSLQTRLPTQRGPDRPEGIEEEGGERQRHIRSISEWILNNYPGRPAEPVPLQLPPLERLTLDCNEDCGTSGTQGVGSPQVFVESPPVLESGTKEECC

SMILES	IC50
COc1cccc(NS(=O)(=O)c2ccc3c(c2)C2C=CCC2C(c2ccc(C(=O)O)cc2)N3)c1 (stereo not drawn)	11.9 µM (active)
COc1ccc(-c2nn(-c3ccccc3)cc2/C=C2/SC(=S)N(CCC(=O)O)C2=O)c(C)c1	12.5 µM (active)
CCS(=O)(=O)C1=NN2C(=N)/C(=C\c3ccc(OCCOc4cccc(OC)c4)c(OC)c3)C(=O)N=C2S1	9.24 µM (active)
